Legend:
[1] = system: human prostate cancer cells (PC3); assay: Cytotoxicity by SRB assay, PC3 cells; format: cell-based; settings: androgen-independent metastatic human prostate cancer cells (PC3), 0.01 μM to 100 μM, 72 h
Protocol: (§1) The human prostate cancer cells (PC3) and human osteosarcoma cells (MG-63) were obtained from Nawah Scientific Inc. (Mokatam, Cairo, Egypt) and cultured in DMEM (Dulbecco's modified eagle's medium), Gibco, USA, supplemented with fetal bovine serum (FBS) at a concentration of 10% and 100 U/mL of penicillin and streptomycin (PS). The Cells were incubated at 37° C. in a humidified environment that contained 5% CO2. Cells were seeded in 96-well plates as aliquots of 100 μL cell suspension and incubated in a complete media for 24 h. afterward, cells were treated with 2-(1-(3-(Dimethylamino)propyl)-4,5-diphenyl-1H-imidazol-2-yl)pyridin-3-ol at diverse concentrations ranging from 0.01 μM to 100 μM for 72 h. […] Then, 150 μL of Tris pH 10.5 (10 mM) was added, and the absorbance was measured at 540 nm using a BMG LABTECH®-FLUOstar Omega microplate reader (Ortenberg, Germany). Half maximal inhibitory concentrations (IC50) values were calculated for each experiment using GraphPad Prism 6 software. […] The inhibition was calculated using the following equation: Inhibition %=100−Average Viability The anticancer activity of 2-(1-(3-(Dimethylamino)propyl)-4,5-diphenyl-1H-imidazol-2-yl)pyridin-3-ol was assessed against highly aggressive androgen-independent metastatic human prostate cancer cells (PC3) and osteosarcoma (MG-63) cells.

[2] = system: human osteosarcoma cells (MG-63); assay: Cytotoxicity by SRB assay, MG-63 cells; format: cell-based; settings: osteosarcoma (MG-63) cells, 0.01 μM to 100 μM, 72 h
Protocol: as §1

melting point: 133 to 135 °C
SMILES: CN(C)CCCn1c(-c2ncccc2O)nc(-c2ccccc2)c1-c1ccccc1 [2-(1-(3-(Dimethylamino)propyl)-4,5-diphenyl-1H-imidazol-2-yl)pyridin-3-ol]
antiproliferative activity against PC3 cells [1]: excellent antiproliferative activities | antiproliferative activity against MG-63 cells [2]: excellent antiproliferative activities
